From patent US20090170880A1, “Methods and Means for the Treatment of Cancer” (priority 2007, published 2009)
“Also recorded” adds a separate entry of the source.

Tests used:
human BCRP = target: T1, human BCRP (Homo sapiens, UniProt Q9UNQ0); experiment: Transwell transport of temozolomide, MDCK-BCRP cells; assay type: in vitro ADME; details: 40 μg/ml, MDCK-BCRP versus MDCK parent, zosuquidar 5 μM
T1 construct: expressed in transfected cells; host or cells: MDCK (canine kidney) cells transduced with human BCRP
T1 sequence (Q9UNQ0 1-655): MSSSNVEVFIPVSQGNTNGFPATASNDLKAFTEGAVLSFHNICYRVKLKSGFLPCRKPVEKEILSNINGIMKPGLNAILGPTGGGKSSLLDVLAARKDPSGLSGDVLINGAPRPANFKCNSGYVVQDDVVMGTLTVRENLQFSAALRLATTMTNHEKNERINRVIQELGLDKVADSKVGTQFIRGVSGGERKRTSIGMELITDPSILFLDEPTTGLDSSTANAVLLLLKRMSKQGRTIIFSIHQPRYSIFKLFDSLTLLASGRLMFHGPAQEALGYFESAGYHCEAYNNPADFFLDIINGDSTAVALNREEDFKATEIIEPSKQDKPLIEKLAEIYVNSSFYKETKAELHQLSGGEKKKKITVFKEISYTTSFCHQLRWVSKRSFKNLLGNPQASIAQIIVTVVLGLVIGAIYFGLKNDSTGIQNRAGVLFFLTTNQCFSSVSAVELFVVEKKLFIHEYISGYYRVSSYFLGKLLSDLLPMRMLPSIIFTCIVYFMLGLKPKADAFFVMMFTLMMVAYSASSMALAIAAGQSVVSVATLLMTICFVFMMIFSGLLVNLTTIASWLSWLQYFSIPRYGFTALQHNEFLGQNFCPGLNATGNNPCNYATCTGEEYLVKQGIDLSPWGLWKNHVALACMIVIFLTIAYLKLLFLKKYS
Experimental: The parental LLC pig-kidney (PK1) cell line and sublines transduced with murine Mdr1a or human MDR1 (12) and the parental Madine Darby Canine Kidney (MDCK) and murine Bcrp1 or human BCRP transduced sublines (13) were seeded on Transwell microporous polycarbonate membrane filters (3.0 μm pore size, 24 mm diameter; Costar Corning, N.Y., USA) at a density of 1×10^6 cells per well in 2 ml of MEM medium (Invitrogen Corporation, Carlsbad, Calif.) containing 10% v/v fetal calf serum. Cells were incubated at 37° C. in 5% CO2 for three days with one medium replacement after the first day. Two hours before the start of the experiment the medium in both compartments was replaced with 2 ml of OptiMEM medium (InVitrogen Corp.). At the start of the experiment the medium in the apical or basolateral compartment was replaced with 2 ml of freshly prepared OptiMEM medium containing 40 μg/ml of temozolomide. […] Zosuquidar (LY335979, 5 μM) was always added to the medium when doing experiments with MDCK cell lines to inhibit endogenous canine P-gp. Samples of 50 μl were collected every 30 min, for up to 2 h after start of the experiment. Because temozolomide is instable in medium at 37° C., we replaced one ml of the donor compartment by a freshly prepared aliquot every 30 min. […]

[1] = system: intracranial Mel57-luc tumor xenografts; experiment: Efficacy against intracranial Mel57-luc tumor xenografts; assay type: in vivo, nude mice
Experimental: Intracranial Mel57-luc (luciferase transfected subline) tumor xenografts in wild-type nude mice (WT) and mdr1ab knockout nude mice (MDR) were established according to the protocol below (see Kemper et al, Eur J Cancer 42:3294-3303, 2006).
The Mel57 cell line (University Medical Centre, Nijmegen, The Netherlands) is a human melanoma cell line and was cultured in MEM (Life Technologies Inc., Breda, The Netherlands) supplemented with 10% foetal calf serum, non-essential amino acids, streptomycin, penicillin and sodium pyruvate (all Life Technologies), and incubated at 37° C. and 5% CO2 in humidified air. The cell line was further transfected by standard protocols with lipofectamine using a pBS vector containing a β-actin driven luciferase gene coupled via an internal ribosome […] to GFP. After expansion, GFP bright cells were sorted to single cells by FACS, expanded and sublines tested for luciferase expression by an in vitro bioluminescence assay (Promega, Benelux BV, Leiden, The Netherlands). Three to five sublines showing the highest luminescence activity were tested in vivo for tumour take and intracranial growth behaviour. To retrieve tumour cells for injection, the cell culture was trypsinised (trypsin 0.05%; EDTA 0.02%, Life Technologies), washed two times with Hanks Balanced Saline Solution (HBSS, Life Technologies Inc.), counted and resuspended in an appropriate volume of HBSS. The single cell suspension was kept on ice until injection. […]
Mel57-luc cells (100,000 cells/2 μl) were injected stereotactically in the brain as described in detail in Kemper et al^14. […] The amount of bioluminescence in each animal was calculated relative to the first measurement when therapy was initiated (arbitrarily set at 100%) and was log converted prior to data analysis. Tumor volume was measured by bioluminescence activity (see Kemper et al, Eur J Cancer 42:3294-3303, 2006).

transport of temozolomide by human BCRP (human BCRP): more moderate transport
transport of temozolomide by human BCRP (human BCRP; listed as Temozolomide): less
SMILES: Cn1nnc2c(C(N)=O)ncn2c1=O [temozolomide, 8-carbamoyl-3-methyl-[3H]-imidazo[5,1-d]-1,2,3,5-tetrazin-4-one]
response to temozolomide, P-gp (Mdr1ab) knockout versus wild-type nude mice ([1]; oral 100 mg/kg for 5 consecutive days, bioluminescence, 100 mg/kg): greater reduction in tumor volume; also recorded: respond better
difference in efficacy, Bcrp1/Mdr1ab knockout versus wild-type nude mice ([1]; oral 100 mg/kg/day×5 from day 7, bioluminescence): more pronounced
